For 2 compounds, IC50 and melting point results are on record in paper PMC6150201, “Synthesis and Antitumor Activity of Novel Arylpiperazine Derivatives Containing the Saccharin Moiety” (Molecules : A Journal of Synthetic Chemistry and Natural …, 2017).

Like-named read-outs stand apart in the source and are kept apart here.

In series [1] the test system is PC-3 cells. Also on record: method as in PMID 24910245. The note with it: reference compound, SD not given; cited from earlier work.
For series [2], the system named is LNCaP cells. Also on record: method as in PMID 24910245. The following applies: reference compound, SD not given; cited from earlier work.
Series [3] deals with DU145 cells. Also on record: method as in PMID 24910245. The note with it: reference compound, SD not given; cited from earlier work.
The test system of series [4] is PC-3 cells. Kind of series: In vitro cytotoxicity, CCK-8 assay, PC-3 cells. The series is classed as cell-based, human. The note with it: PC-3; androgen-insensitive human prostate cancer cell line; CCK-8; 24 h exposure; mean ± SD of three experiments. The protocol:
(§1) The synthesized target compounds 4–21 were evaluated for their in vitro cytotoxic activities against three human prostate cancer cell lines (PC-3, LNCaP, and DU145) and compared with their effects on the human prostate epithelial cell line WPMY-1 by CCK-8 assay.
(§2) PC-3 and WPMY-1 cells were cultured in Dulbecco’s modified Eagle’s medium (DMEM, Invitrogen, Carlsbad, CA, USA) supplemented with 10% fetal bovine serum (FBS, Hyclone, Logan, UT, USA), 100 U/mL penicillin, and 0.1 mg/mL streptomycin (Invitrogen). DU145 cells were cultured in RPMI1640 media supplemented with 10% fetal bovine serum (FBS, Hyclone), 100 U/mL penicillin, and 0.1 mg/mL streptomycin (Invitrogen). LNCaP cells were cultured in F12 media supplemented with 10% fetal bovine serum (FBS, Hyclone), 100 U/mL penicillin, and 0.1 mg/mL streptomycin (Invitrogen). The cells were incubated at 37 °C in a humidified atmosphere with 5% CO2.
(§3) Cell proliferation was measured with the Cell Counting Kit-8 (CCK-8) assay kit (Dojindo Corp., Kumamoto, Japan). Cells were harvested during their logarithmic growth phase, seeded in 96-well plates at a density of 1 × 10^5 cells/mL, and cultured at 37 °C in a humidified incubator (5% CO2) for 24 h, followed by exposure to various concentrations of compounds tested for 24 h. Subsequently, 10 μL of CCK-8 (Dojindo) was added to each well, and the cells were then incubated for an additional 1 h at 37 °C to convert WST-8 into formazan. Cell growth inhibition was determined by measuring the absorbance (Abs) at λ = 450 nm using a microplate reader. Three independent experiments were performed. Cell growth inhibition was calculated according to the following equation: Growth inhibition = (1 − OD of treated cells / OD of control cells) × 100%
(§4) The half maximal inhibitory concentrations (IC50) were obtained from a linear regression analysis of the concentration-response curves plotted for each tested compound.
In general terms: Formazan colour is commonly taken as a measure of viable cells.

In series [5] the test system is LNCaP cells. Kind of series: In vitro cytotoxicity, CCK-8 assay, LNCaP cells. The note with it: LNCaP; androgen-sensitive human prostate cancer cell line; CCK-8; 24 h exposure; mean ± SD of three experiments. It is filed as cell-based, human. On the procedure: as §1, §2, §3, §4
In series [6] the test system is DU145 cells. Kind of series: In vitro cytotoxicity, CCK-8 assay, DU145 cells. The series is classed as cell-based, human. The note with it: Homo sapiens, DU-145, 24 h, androgen-insensitive human prostate cancer cell line; CCK-8; 24 h exposure; mean ± SD of three experiments. The protocol: as §1, §2, §3, §4
The test system of series [7] is WPMY-1 cells. Kind of series: In vitro cytotoxicity, CCK-8 assay, WPMY-1 prostate epithelial cells. The series is classed as cell-based, human. The note with it: WPMY-1; human prostate epithelial cell line; CCK-8; 24 h exposure; mean ± SD of three experiments. On the procedure: as §1, §2, §3, §4

For `CC(C)(C)NC(=O)[C@H]1CC[C@H]2[C@@H]3CC[C@H]4NC(=O)C=C[C@]4(C)[C@H]3CC[C@]12C` [Finasteride], the half-maximal inhibitory concentration (IC50) (as a rule, the concentration needed to halve the response being measured) in series [1] was 17.8 µM; in series [2], 14.5 µM; in series [3], 13.5 µM.
As to `COc1ccc(N2CCN(CCc3ccc(CN4C(=O)c5ccccc5S4(=O)=O)cc3)CC2)cc1` [Compound 10, Saccharin N-(1-(4-(methyl)phenethyl)-4-(4-methoxyphenyl)piperazine)], the melting point (commonly the temperature, or range, at which the solid turns liquid) was in the range of 149 to 150 °C. For the same compound, the IC50 in series [4] stood at 4.38 ± 0.13 µM. Also, the half-inhibitory concentration (IC50) in series [5] is more than 50 µM. In series [6], half-maximal inhibition (IC50) required 2.28 ± 0.05 µM. For the same compound, the IC50 in series [7] is more than 50 µM.
